Columns and labels:
primary spine disc cells = test: mRNA expression of inflammatory cytokines and r-AGEs in primary spine disc cells exposed to AGEs; type: cell-based, human and bovine; conditions: FIG. 3
Source text: Primary spine disc cells were isolated from both human and bovine spine discs. The tissues were digested using a cocktail containing collagenase P, trypsin, and other enzymes to release the primary cells embedded within the tissues (Neidlinger-Wilke C, Liedert A, Wuertz K, Buser Z, Rinkler C, Käfer W, et al. Mechanical stimulation alters pleiotrophin and aggrecan expression by human intervertebral disc cells and influences their capacity to stimulate endothelial migration. Spine 2009; 34:663-669). These cells were then conditioned and allowed to expand for 3 passages. After conditioning in normal cell culture media, the cells were exposed to several conditions: Control, bovine serum albumin, and AGEs. The treatments were dissolved directly in the cell culture media and then the cells were subjected to these conditions for 24 hours. Messenger ribose nucleic acids (mRNA) were then extracted from these cells and amplified into respective complimentary deoxyribose nucleic acids (cDNA). The cDNA sequences were tested for the normalized expression (normalized to the housekeeping gene, GAP-DH) of Interleukin (IL)-4, IL-6 (both of which initiate the inflammatory pain response), and the Receptor-for Advanced Glycation End-products (r-AGEs). The normalized expressions compared to the controls were computed by the delta-delta CT method.

[1] = system: advanced glycation end-products (AGEs) in nucleus pulposus (NP) tissues; test: AGEs in NP disc tissue: autofluorescence of acid hydrolysates divided by collagen content, after thiazolium salt incubation; set-up: species or system human; conditions: 4 days
Experimental: Eleven lumbar spines (T12/L1-L5/S1) were collected fresh frozen cadavers consisting of 5 males and 6 females with a mean age of 82.5 years ±10.2. The cross-sections of the lumbar disc were visually categorized into Thompson grades 1 to 5 and corroborated with fluoroscopic imaging. The grade 1 (“Control”) and grade 5 (“Degenerate”) discs were used (total 27 discs). The discs were separated into annulus fibrosus (AF) and nucleus pulposus (NP) tissues. The Control discs were tested mechanically and then divided to undergo 0, 2, 4, 8, and 10 days of ribosylation in 0.6M ribose at 37° C. The treated Control discs, along with the degenerated discs were then tested mechanically using a dynamic microindentation device in 0.15M PBS at 20° C. using the Biopent 1000 reference point indentation system (Active Life Scientific, CA). A 1.47 mm diameter cylindrical probe cyclically indented the tissue to a depth of 300 μm at 1 Hz to generate a force displacement curve. Three distinct sites per AF/NP were measured and averaged between the sites. The resulting force-deformation curves, accounting for the probe geometry, were used to compute elastic modulus and tan δ.
Following mechanical measurements, the O-day and 4-day treated Control NP tissues were incubated in 0.15M of a thiazolium salt known to cleave AGEs products (Oturai P S, Christensen M, Rolin B, Pedersen K E, Mortensen S B, Boel E. Effects of advanced glycation end-product inhibition and cross-link breakage in diabetic rats. Metab Clin Exp 2000:49:996-1000.) for 4 days. […] Following the second incubation, all tissues were mechanically assessed again, and then subjected to acid hydrolysis by 6N hydrochloric acid (16 hours, 110C). The collagen crosslinking by AGEs, a sugar-derived posttranslational modification of amino acids, was quantified by measuring the autofluorescence of the acid hydrolysates at […] and divided by collagen content (Monnier V M, Kohn R R, Cerami A. Accelerated age-related browning of human collagen in diabetes mellitus. Proc Natl Acad Sci USA 1984; 81:583-587). […]

[2] = system: nucleus pulposus (NP) tissues; test: Dynamic microindentation of NP tissue (indentation modulus, tan δ) after thiazolium salt incubation; set-up: species or system human; conditions: ribosylated or degenerated, thiazolium salt solution 4 days, FIG. 2
Experimental: Eleven lumbar spines (T12/L1-L5/S1) were collected fresh frozen cadavers consisting of 5 males and 6 females with a mean age of 82.5 years ±10.2. The cross-sections of the lumbar disc were visually categorized into Thompson grades 1 to 5 and corroborated with fluoroscopic imaging. The grade 1 (“Control”) and grade 5 (“Degenerate”) discs were used (total 27 discs). The discs were separated into annulus fibrosus (AF) and nucleus pulposus (NP) tissues. The Control discs were tested mechanically and then divided to undergo 0, 2, 4, 8, and 10 days of ribosylation in 0.6M ribose at 37° C. […] Three distinct sites per AF/NP were measured and averaged between the sites. […]
Following mechanical measurements, the O-day and 4-day treated Control NP tissues were incubated in 0.15M of a thiazolium salt known to cleave AGEs products (Oturai P S, Christensen M, Rolin B, Pedersen K E, Mortensen S B, Boel E. Effects of advanced glycation end-product inhibition and cross-link breakage in diabetic rats. Metab Clin Exp 2000:49:996-1000.) for 4 days. […] Following the second incubation, all tissues were mechanically assessed again, and then subjected to acid hydrolysis by 6N hydrochloric acid (16 hours, 110C). […]

`O=C(C[n+]1ccsc1)c1ccccc1.[Br-]` [PTB, N-phenacyl thiazolium bromide] was tested, and the “cellular inflammatory response, marked by the cytokines IL-4 and IL-6” value (primary spine disc cells; concurrent administration with AGEs in cell culture media, 24 hours) was “suppresses this response”, the Interleukin-1 expression (primary spine disc cells; primary spinal disc cells) was “decrease” and the Interleukin-6 expression (primary spine disc cells; primary spinal disc cells) was “decrease”. For the same compound, the “expression of the Receptor-for-Advanced Glycation End-Products” value (primary spine disc cells; primary spinal disc cells) was “reduction”, the “AGEs in NP disc tissue” value ([1]; Grade 1 (Control) NP tissue, 0.15M PTB solution) was “significant reductions” and the “AGEs in NP disc tissue” value ([1]; Grade 5 (Degenerate) NP tissue, 0.15M PTB solution) was “significant reductions”. The “AGEs in NP disc tissue” value ([1]; Grade I+Ribosylation NP tissue (4-day ribosylation), 0.15M thiazolium salt) was “significant reductions” and the “mechanical properties of NP tissue (indentation modulus, tan δ)” value [2] was “rescuing effect”.

Source: patent US20130253020A1, “Treatment of Degenerative Disc Diseases” (priority 2012, published 2013)
